According to ChEMBL document CHEMBL1155248, “Structure-based shape pharmacophore modeling for the discovery of novel anesthetic compounds” (Bioorg Med Chem, 2009):

Tests used:
[1] = Binding affinity to apoferritin by isothermal titration calorimetry
[2] = Agonist activity at GABAA assessed as enhancement of channel current; assay type: functional

SMILES	pEC50 [1]	Kd [2]
CC(C)(C)c1cc(O)cc(C(C)(C)C)c1	4	
CC(C)c1cccc(C(C)C)c1O [PROPOFOL]	5.7	230 nM
CCc1cccc(CC)c1Br	4.7	
Cc1cccc(C(C)(C)C)c1O	6.3	
CC(C)c1ccccc1O	4.4	500 nM
CCC(C)c1cccc(C(C)CC)c1O (centres undefined)	5.6	
CCc1cccc(CC)c1O	4.9	310 nM
CC(C)c1cc(O)c(O)c(C(C)C)c1	4.4	
CCC(C)c1ccc(O)c(C(C)CC)c1 (centres undefined)	4.5	
Oc1ccccc1 [PHENOL]	3	3800 nM
Cc1cccc(C)c1O	3.9	360 nM
CCc1cccc(CC)c1N=C=O	4.6	
CCc1cccc(CC)c1N=C=S	4.8	
CC(C)c1cc(I)cc(C(C)C)c1O	5	
